Reference: patent publication US12180187B2, “1-phenyl-5-azinylpyrazolyl-3-oxyalkyl acids and their use for controlling unwanted plant growth” (BAYER AKTIENGESELLSCHAFT, priority 2019, dated 2024)

Legend:
[1] = test system: ABUTH; assay: Pre-emergence action against ABUTH, 1280 g/ha; assay type: in vivo, Abutilon theophrasti; details: scored visually after about 3 weeks vs untreated controls (100% = plants have died)
Outline: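 Weed seeds sown in sandy loam in pots, covered with soil; compound as WP or EC applied to soil surface as aqueous suspension/emulsion with 0.5% additive at 600 L/ha water. Greenhouse, good growth conditions; visual % damage vs untreated controls after about 3 weeks (100% = plants dead, 0% = like control).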

[2] = test system: MATIN; assay: Pre-emergence action at 320 g/ha against MATIN; assay type: in vivo, Tripleurospermum inodorum (Matricaria inodora); details: visual scoring after about 3 weeks vs untreated controls
Outline: (§1)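 Visual scoring in percent against untreated controls, about 3 weeks after treatment, where 100% means dead plants and 0% means no difference. Compounds were applied as aqueous suspension or emulsion (WP or EC, plus 0.5% additive) onto soil covering freshly sown seeds, at 600 l/ha water.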

[3] = test system: VERPE; assay: Pre-emergence action at 320 g/ha against VERPE; assay type: in vivo, Veronica persica; details: visual scoring after about 3 weeks vs untreated controls
Outline: as §1

[4] = test system: VIOTR; assay: Pre-emergence action at 320 g/ha against VIOTR; assay type: in vivo, Viola tricolor; details: dosage 320 g/ha
Outline: as §1

[5] = test system: ECHCG; assay: Post-emergence action against ECHCG, 1.28 kg/ha; assay type: in vivo, Echinochloa crus-galli; details: dosage 1280 g/ha, visual rating about 3 weeks after treatment vs untreated controls
Outline: (§2)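 Visual rating against untreated plants about 3 weeks after spraying gives % activity, where 0% means like controls and 100% means plants died. Plants were treated post-emergence at the one-leaf stage with compound formulated as wettable powder or emulsion concentrate, applied at 600 L water/ha plus 0.5% additive.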

[6] = test system: LOLRI; assay: Post-emergence action against LOLRI, 1.28 kg/ha; assay type: in vivo, Lolium rigidum; details: dosage 1280 g/ha, visual rating about 3 weeks after treatment vs untreated controls
Outline: as §2

[7] = test system: SETVI; assay: Post-emergence action against SETVI, 1.28 kg/ha; assay type: in vivo, Setaria viridis; details: dosage 1280 g/ha, visual rating about 3 weeks after treatment vs untreated controls
Outline: as §2

[8] = test system: AMARE; assay: Post-emergence action against AMARE, 1.28 kg/ha; assay type: in vivo, Amaranthus retroflexus; details: dosage 1280 g/ha, visual rating about 3 weeks after treatment vs untreated controls (100% = plants died)
Outline: as §2

[9] = test system: STEME; assay: Post-emergence action against STEME, 1.28 kg/ha; assay type: in vivo, Stellaria media; details: dosage 1280 g/ha, visual rating about 3 weeks after treatment vs untreated controls (100% = plants died)
Outline: as §2

[10] = test system: ECHCG; assay: Post-emergence action at 320 g/ha against ECHCG; assay type: in vivo, Echinochloa crus-galli; details: dosage 320 g/ha, visual rating about 3 weeks after treatment vs untreated controls (100% = plants died)
Outline: (§3)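 Greenhouse-grown plants sprayed post-emergence at the one-leaf stage, 2 to 3 weeks after sowing, with WP or EC formulations plus 0.5% additive at 600 l/ha water, at 320 g/ha. Activity rated visually after about 3 weeks versus untreated controls (100% = plants died, 0% = like control).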

[11] = test system: ECHGC; assay: Pre-emergence action at 320 g/ha against ECHGC; assay type: in vivo, Echinochloa crus-galli; details: visual scoring after about 3 weeks vs untreated controls
Outline: as §1

[12] = test system: DIGSA; assay: Post-emergence action at 320 g/ha against DIGSA; assay type: in vivo, Digitaria sanguinalis; details: dosage 320 g/ha, visual rating about 3 weeks after treatment vs untreated controls (100% = plants died)
Outline: as §3

[13] = test system: PHBPU; assay: Post-emergence action at 320 g/ha against PHBPU; assay type: in vivo; details: visual rating about 3 weeks after treatment vs untreated controls
Outline: as §3

[14] = test system: AMARE; assay: Post-emergence action at 320 g/ha against AMARE; assay type: in vivo, Amaranthus retroflexus; details: visual rating about 3 weeks after treatment vs untreated controls
Outline: as §3

| SMILES | Pre-emergence action against ABUTH [1] [%] | Pre-emergence action against MATIN in % [2] [%] | Pre-emergence action against VERPE in % [3] [%] | Pre-emergence action against VIOTR in % [4] [%] | Post-emergence action against ECHCG [5] [%] | Post-emergence action against LOLRI [6] [%] | Post-emergence action against SETVI [7] [%] | Post-emergence action against AMARE [8] [%] | Post-emergence action against STEME [9] [%] | Post-emergence action at 320 g/ha against ECHCG in % [10] [%] | Pre-emergence action against ECHGC in % [11] [%] | Post-emergence action at 320 g/ha against DIGSA in % [12] [%] | Post-emergence action against PHBPU in % [13] [%] | Post-emergence action against AMARE in % [14] [%] |
| --- | --- | --- | --- | --- | --- | --- | --- | --- | --- | --- | --- | --- | --- | --- |
| COC(=O)CNC(=O)COc1nn(-c2ccccc2F)c(-c2ccc(F)nc2)c1C(F)(F)F [Example X-007] | 90 | 100 | 100 | 100 | 100 | 100 | 100 | 90 | 100 | 80 |  |  |  |  |
| CCOC(=O)COc1nn(-c2ccccc2F)c(-c2ccc(F)nc2)c1I [VII-036] | 90 | 90 | 100 | 100 | 90 | 100 | 90 | 100 | 100 | 80 | 90 | 90 | 80 |  |
| O=C(O)COc1nn(-c2ccccc2F)c(-c2ccc(F)nc2)c1I [VII-037] |  | 80 | 100 | 100 | 90 | 90 | 90 | 90 | 100 | 80 | 80 | 90 | 80 |  |
| COCCOC(=O)COc1nn(-c2ccccc2F)c(-c2ccc(F)nc2)c1Br [VII-052] | 100 | 90 | 90 | 100 | 100 |  | 90 | 90 | 100 |  | 90 | 90 | 80 |  |
| CCOC(=O)C(C)Oc1nn(-c2ccccc2F)c(-c2ccc(F)nc2)c1I (stereo not drawn) [VII-057] | 90 | 90 |  | 100 | 100 |  | 100 | 100 |  |  |  | 90 |  |  |
| COC(=O)[C@@H](C)Oc1nn(-c2cc(F)ccc2F)c(-c2ccc(F)nc2)c1Br [VII-062] | 90 | 100 | 100 | 100 | 100 | 100 |  |  | 100 | 80 |  | 90 | 80 |  |
| CCOC(=O)C(C)Oc1nn(-c2ccccc2F)c(-c2ccc(F)nc2)c1C(F)(F)F (stereo not drawn) [VII-066] |  | 100 | 100 | 100 | 100 | 100 | 90 | 90 | 100 | 80 | 90 | 90 |  |  |
| COC(=O)COc1nn(-c2cc(F)ccc2F)c(-c2ccc(F)nc2)c1Br [VII-089] |  | 90 | 100 | 100 | 90 | 100 |  | 90 | 100 |  | 80 | 90 | 80 | 80 |
| O=C(COc1nn(-c2ccccc2F)c(-c2ccc(F)nc2)c1Br)OCC1CCOC1 (stereo not drawn) [VII-091] | 90 | 90 | 100 | 100 | 100 | 100 | 90 | 90 | 90 |  |  | 90 |  |  |
| O=C(COc1nn(-c2ccccc2F)c(-c2ccc(F)nc2)c1Br)OCC1OCCO1 [VII-103] | 90 | 90 | 100 | 100 | 100 | 100 | 90 | 90 |  | 80 | 80 | 90 | 80 |  |
| COC(=O)[C@H](C)Oc1nn(-c2cc(F)ccc2F)c(-c2ccc(F)nc2)c1Br [VII-107] |  | 90 | 80 | 100 | 100 |  | 90 | 100 | 100 | 80 |  | 90 |  |  |
| CCOC(=O)COc1nn(-c2ccccc2F)c(-c2ccc(F)nc2)c1C [VII-117] | 90 | 90 | 90 | 100 | 100 | 100 |  | 100 |  |  | 90 | 90 |  |  |
| COC(=O)[C@@H](C)Oc1nn(-c2cc(F)ccc2F)c(-c2cncc(F)c2)c1Br [VII-132] | 90 | 90 | 100 | 100 | 100 |  | 90 | 100 |  | 80 | 90 | 90 | 90 | 90 |
| COC(=O)[C@@H](C)Oc1nn(-c2cc(F)ccc2F)c(-c2cncc(F)c2)c1C#N [VII-147] | 90 | 90 | 100 | 100 | 100 | 100 | 90 | 100 | 100 | 80 | 100 |  | 90 |  |
| COC(=O)[C@@H](C)Oc1nn(-c2ccccc2F)c(-c2ccnc(F)c2)c1Br [VIII-006] | 90 | 90 |  | 100 | 90 | 100 | 90 | 100 | 100 | 90 |  |  |  | 80 |
